# Where a name gives a salt, the structure may show the parent alone.
# What was measured:
# alpha-2-receptor = test: Radioligand binding, alpha-2 adrenoceptor, rat cerebral cortices, [3H]-rauwolscine; conditions: ratio Ki alpha-1/Ki alpha-2
# Experimental: (§1) The compounds were assessed for alpha-adrenergic receptor subtype selectivity by use of radioligand binding techniques as described previously (DeBernardis et.al. J. Med. Chem. 28, 1398 (1985)).
# alpha-1-receptor = target: T1, alpha-1-receptor (Rattus norvegicus, UniProt P15823); test: Radioligand binding, alpha-1 adrenoceptor, rat liver homogenates, [3H]-prazosin; conditions: rat liver homogenates, [3H]-prazosin; read-out: Ki alpha-1
# T1 construct: rat liver homogenates; from tissue; host or cells: rat liver homogenate
# T1 sequence (P15823 1-515): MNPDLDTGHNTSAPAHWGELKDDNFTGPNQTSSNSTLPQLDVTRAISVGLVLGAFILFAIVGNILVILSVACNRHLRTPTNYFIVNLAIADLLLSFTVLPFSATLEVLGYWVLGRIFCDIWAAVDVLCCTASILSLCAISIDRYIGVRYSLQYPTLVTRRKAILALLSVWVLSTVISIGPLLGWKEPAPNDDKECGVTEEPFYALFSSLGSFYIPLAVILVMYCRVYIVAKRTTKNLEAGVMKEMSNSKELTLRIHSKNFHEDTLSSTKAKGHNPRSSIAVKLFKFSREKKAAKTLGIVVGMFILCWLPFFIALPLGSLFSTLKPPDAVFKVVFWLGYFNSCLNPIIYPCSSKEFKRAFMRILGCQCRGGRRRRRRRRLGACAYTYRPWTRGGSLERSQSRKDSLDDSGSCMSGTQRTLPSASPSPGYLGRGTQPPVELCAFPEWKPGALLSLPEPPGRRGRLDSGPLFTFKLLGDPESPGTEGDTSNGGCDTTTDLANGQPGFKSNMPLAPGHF
# Experimental: as §1
# [1] = test system: intraocular pressure of rabbits; test: Effects of topically administered compounds on intraocular pressure of rabbits; format: in vivo, rabbit (New Zealand albino); conditions: 0.3% soln., topical to cornea
# Experimental: The effect on intraocular pressure of the compounds of the invention can be determined in rabbits by using the following method.
# a. Method The intraocular pressure lowering effects of the compounds were evaluated in unanesthetized, male albino, New Zealand rabbits weighing 2.0 to 2.5 kg. The rabbits were placed in Plas Labs restraining devices for the duration of the experiment. Intraocular pressure (IOP) was measured with a Bausch and Lomb Applamatic Tonometer and recorded as the average of three individual readings at each time point in the experiment. Baseline IOP values were established at three time points separated by 30 minutes. Each compound or vehicle was applied topically to the cornea in a volume of 0.1 ml to one eye in each six rabbits. The contralateral eye was untreated. IOP was recorded at 5, 15, 30, 60 and 90 minutes after dosing.
# dopamine uptake = test: Biogenic amine uptake inhibition in rat brain synaptosomes, dopamine; format: biochemical, rat (Sprague-Dawley); conditions: tritiated amine 0.1 μM, 37° C., 4 minutes
# Experimental: (§2) The ability of compounds of the invention to inhibit biogenic amine uptake is determined as outlined below.
# (§3) Sprague-Dawley derived rats of either sex, weighing about 180-250 g, were killed by decapitation. The brains were immediately removed, placed on a glass plate chilled over crushed ice and dissected according to a modification of the method of Glowinski and Iversen (J. Neurochem. 13, 655-669, 1966). First, the rhombencephalon was separated by transverse section and discarded. The remaining tissue was bisected by a midline sagittal cut. The hypothalamus was removed using the anterior and posterior reference points, respectively. The hippocampus was peeled away and discarded and the striata were exposed and removed. Frontal cortical tissue was dissected from remaining brain structures. […] The tissues were placed in a cold Potter-Elvehjem glass homogenizer with 5 (cortex) or 10 (hypothalamus) and 20 (striatum) volumes of ice-cold 0.32M sucrose, pH 7.0 and homogenized by hand. The homogenate was centrifuged at 2500 rpm in a GLC centrifuge for 10 minutes in a refrigerated room. The supernatant fraction containing the synaptosomes was decanted, mixed thoroughly, and kept on crushed ice for use in the uptake studies.
# serotonin uptake = test: Biogenic amine uptake inhibition in rat brain synaptosomes, serotonin; format: biochemical, rat (Sprague-Dawley); conditions: tritiated amine 0.1 μM, 37° C., 4 minutes
# Experimental: as §2, §3
# norepinephrine uptake = test: Biogenic amine uptake inhibition in rat brain synaptosomes, norepinephrine; format: biochemical, rat (Sprague-Dawley); conditions: tritiated amine 0.1 μM, 37° C., 4 minutes; read-out: Biogenic Amine Uptake Inhibition IC50 Norephinephrine
# Experimental: as §2, §3
Compound,alpha-2 - Selectivity Ki alpha-1/Ki alpha-2 (alpha-2-receptor),Ki (alpha-1-receptor) [µM],also measured
"COc1ccc2c(c1)CCCC2CN(C)CCC1CCCS1 (stereo not shown) [Example 6h, 1-((N-methylamino)methyl-N-(2-(2-tetrahydrothienyl)ethyl)) 6-methoxy tetralin hydrochloride]",430,1.51,–
"Fc1ccc2c(c1)CCCC2CN1CCC(c2cccs2)C1 (stereo not shown) [Example 149, 6-Fluoro-1-(3-(2-thienyl)pyrrolidino-1-methyl) tetralin methanesulfonate]",45,–,–
5-Methoxy-1-(3-phenylpyrrolidino-1-methyl) indane hydrochloride [Example 152],11,–,–
CN(CCc1ccccc1)CC1CCCc2cc(O)ccc21 (stereo not shown) [11 (HCl salt)],–,–,% Change in Intraocular Pressure After Treatment Compared to Untreated Eye in Rabbits ([1]; 5 minutes): -38%; % Change in Intraocular Pressure After Treatment Compared to Untreated Eye in Rabbits ([1]; 15 minutes): -55%; % Change in Intraocular Pressure After Treatment Compared to Untreated Eye in Rabbits ([1]; 30 minutes): -54%; % Change in Intraocular Pressure After Treatment Compared to Untreated Eye in Rabbits ([1]; 60 minutes): -44%; % Change in Intraocular Pressure After Treatment Compared to Untreated Eye in Rabbits ([1]; 90 minutes): -20%
"Fc1ccc2c(c1)CCCC2CN1CCC(c2ccccc2)C1 (stereo not shown) [Example 148, 6-Fluoro-1-(3-phenylpyrrolidino-1-methyl) tetralin methanesulfonate]",19,0.126,–
"CN(CCc1cccc(F)c1)CC1CCCc2cc(O)ccc21 (stereo not shown) [Example 10, 1-((N-Methylamino)methyl-N-(2-(m-fluorophenyl)ethyl))-6-hydroxy tetralin hydrochloride]",–,–,% Change in Intraocular Pressure After Treatment Compared to Untreated Eye in Rabbits ([1]; 5 minutes): -45%; % Change in Intraocular Pressure After Treatment Compared to Untreated Eye in Rabbits ([1]; 15 minutes): -31%; % Change in Intraocular Pressure After Treatment Compared to Untreated Eye in Rabbits ([1]; 30 minutes): -25%; % Change in Intraocular Pressure After Treatment Compared to Untreated Eye in Rabbits ([1]; 60 minutes): -36%; % Change in Intraocular Pressure After Treatment Compared to Untreated Eye in Rabbits ([1]; 90 minutes): -23%
"Nc1ccc2c(c1)CCCC2CN1CCC(c2ccccc2)C1 (stereo not shown) [Example 156, 6-Amino-1-(3-phenylpyrrolidino-1-methyl) tetralin dihydrochloride]",21,0.125,–
"COc1ccc2c(c1)CCC2CN1CCC(c2cccc(F)c2)C1 (stereo not shown) [Example 153, 5-Methoxy-1-(3-(m-fluorophenyl)pyrrolidino-1-methyl) indane hydrochloride]",7,0.058,–
"COc1ccc2c(c1)CCC2CN1CCC(c2cccs2)C1 (stereo not shown) [Example 151, 5-Methoxy-1-(3-(2-thienyl)pyrrolidino-1-methyl) indane hydrochloride]",71,0.177,–
"c1ccc(C2CCN(CC3CCCc4c3ccc3c4OCO3)C2)cc1 (stereo not shown) [Example 143a, 5,6-Methylenedioxy-1-(3-phenylpyrrolidino-1-methyl) tetralin methanesulfonate]",43,0.051,–
"CN(c1ccc2c(c1)CCCC2CN1CCC(c2ccccc2)C1)S(C)(=O)=O (stereo not shown) [Example 193, 6-(N-methylmethylsulfonamido)-1-(3-phenylpyrrolidino-1methyl)tetralin hydrochloride]",93,0.121,–
"8-Fluoro-5,6-methylenedioxy-1-(3-phenylpyrrolidino-1-methyl) tetralin hydrochloride [Example 160]",–,–,IC50 (dopamine uptake): 2.93 µM; IC50 (serotonin uptake): 1.84 µM; IC50 (norepinephrine uptake): 0.991 µM
"CN(CCc1cccc(F)c1)CC1CCCc2c1ccc1c2OCCO1 (stereo not shown) [Example 167, 1-((N-Methylamino)methyl-N-(2-m-fluorophenethyl))-5,6-ethylenedioxy tetralin methanesulfonate]",85,0.357,–
"CN(CCc1cccs1)CC1CCCc2c(Cl)cccc21 (stereo not shown) [Example 129, 1-((N-Methylamino)methyl-N-(2-(2-thieny)ethyl))5-chloro tetralin hydrochloride]",55,0.198,–
"CCOc1ccc2c(c1)CCCC2CN(C)CCc1cccc(N)c1 (stereo not shown) [Example 69, 1-((N-Methylamino)methyl-N-(2-(m-aminophenyl)ethyl))6-ethoxy tetralin dihydrochloride]",98,1.27,–
"COc1ccc2c(c1)CCCC2CN1CCC(c2ccccc2)C1 (stereo not shown) [Example 121, 6-Methoxy-1-(3-phenylpyrrolidino-1-methyl) tetralin hydrochloride]",95,0.095,–
"c1csc(C2CCN(CC3CCCc4c3ccc3c4OCO3)C2)c1 (stereo not shown) [Example 144, 5,6-Methylenedioxy-1-(3-(2-thienyl)pyrrolidino-1-methyl) tetralin methanesulfonate]",–,0.245,–
"COc1cccc2c1CCCC2CN1CCC(c2cccs2)C1 (stereo not shown) [Example 146, hydrochloride]",35,0.17,–
"CCN(CCc1cccs1)CC1CCCc2c1ccc1c2OCCO1 (stereo not shown) [Example 168, 1-((N Ethylamino)methyl-N-(2-(2-thienyl)ethyl))-5,6-ethylenedioxy tetralin hydrochloride]",–,0.823,–
"COc1ccc(C)c2c1CCCC2CN(C)CCc1cccs1 (stereo not shown) [Example 36, 1-((N Methylamino)methyl-N-(2-(2-thienyl)ethyl))-5-methoxy-8-methyl tetralin hydrochloride]",95,0.655,–

# Reference: patent US5086074A, “1-aminomethyl-1,2,3,4-tetrahydronaphthalenes” (Abbott Laboratories, priority 1990, dated 1992)
